Test results as given in patent US8507677B2, “Fluorescent probe” (The University of Tokyo, priority 2007, dated 2013).

Assay: pKa values of pH probes (control of pKa by changing structure)
Assay type: physicochemical
Conditions: pH probe
Description: By using the pH probe described in the present invention, change of pH can be detected in a range including pKa of the compound according to the fluorescence ratio method or the absorbance ratio method. Compounds 1 to 5 have different pKa values, and accordingly, pH ranges suitable for the detection are different among them. Therefore, a pH probe suitable for a pH range desired to be detected can be chosen and used by utilizing the difference. Similarly, by suitably choosing R^3, R^4 and/or R^5 in the general formula (I), or R^13, R^14 and/or R^15 in the general formula (IA), a pH probe having a desired pKa and thus suitable for measurement of a desired pH range can be designed and provided.

Compound `CCN(CC)CCN(C)C1=C(/C=C/C2=[N+](C)c3ccccc3C2(C)C)CCC/C1=C\C=C1\N(C)c2ccccc2C1(C)C` [Compound 3] has a pKa of 8.7.

Work on `CN(C)CCN(C)C1=C(/C=C/C2=[N+](C)c3ccccc3C2(C)C)CCC/C1=C\C=C1\N(C)c2ccccc2C1(C)C` [Compound 2] yielded a pKa of 8.1.

Work on `CN1/C(=C/C=C2\CCCC(/C=C/C3=[N+](C)c4ccccc4C3(C)C)=C2N2CCN(c3ccccc3)CC2)C(C)(C)c2ccccc21` [Compound 5] yielded a pKa of 2.1.

`CN1/C(=C/C=C2\CCCC(/C=C/C3=[N+](C)c4ccccc4C3(C)C)=C2N2CCN(Cc3ccccc3)CC2)C(C)(C)c2ccccc21` [Compound 1] showed a pKa of 5.5.

In the case of `CN1CCN(C2=C(/C=C/C3=[N+](C)c4ccccc4C3(C)C)CCC/C2=C\C=C2\N(C)c3ccccc3C2(C)C)CC1` [Compound 4], the pKa is reported as 6.8.
